Measured values taken from patent publication US10190168B2, “Method for predicting a treatment response to a CRHR1 antagonist and/or a V1B antagonist in a patient with depressive and/or anxiety symptoms” (MAX-PLANCK-GESELLSCHAFT ZUR FÖRDERUNG DER WISSENSCHAFTEN …, priority 2013, dated 2019).

Key:
[1] = test system: control littermates (CL) of Cor26 CRH mice; experiment: REMS levels (EEG/EMG sleep recording) in control littermates of the Cor26 CRH line; settings: 50 mg/kg/d via drinking water
Protocol: (§1) Experiments were conducted with two different mouse lines of excessive central CRH secretion and their respective control littermates (CL). Mice of the CRH-COE^CNS line are characterised by CRH-overexpression within the whole CNS, whereas mice of the Cor26 CRH line display a CRH-overexpression specific to CRH-ergic neurons of the CNS. Three different CRHR1 antagonists were tested. […] In all cases, animals were left to recover from EEG/EMG-electrode implantation for two weeks, after which two days of baseline recording were initiated. Treatment with CRH-R1 antagonist or respective vehicle control commenced thereafter for five consecutive days. Antagonists were applied through the drinking water at a daily dose of 50 mg/kg body weight. EEG and EMG recordings were manually scored as wake, non-REMS (NREMS), and REMS in four second epochs by an experienced evaluator.

Cor26 CRH mice = experiment: REMS levels (EEG/EMG sleep recording) in CRH-overexpressing Cor26 CRH mice; settings: 50 mg/kg/d via drinking water
Protocol: as §1

[2] = test system: control littermates (CL) of CRH-COE^CNS mice; experiment: REMS activity (EEG/EMG sleep recording) in control littermates of the CRH-COE^CNS line; settings: 50 mg/kg/d via drinking water
Protocol: as §1

[3] = test system: mice overexpressing CRH in the forebrain; settings: Kimura et al., Mol. Psychiatry 2010; cited from earlier work
CRH-COE^CNS mice = experiment: REMS activity (EEG/EMG sleep recording) in CRH-overexpressing CRH-COE^CNS mice; settings: 50 mg/kg/d via drinking water; for REMS activity: treatment days vs baseline, effect beginning with treatment day two
Protocol: as §1

With CCC(CC)Oc1cc(C)nc(Oc2c(C)cc(C)cc2C)c1C [CP-316,311] the REMS levels [1] was “no significant effect”, the REMS levels (Cor26 CRH mice; 50 mg/kg/day) was “apparently seemed weak” and the REMS levels (Cor26 CRH mice; listed as CP-316311, 50 mg/kg/day) was “suppressed”. The “REMS levels, area under the curve (AUC) within the light period” value (Cor26 CRH mice; baseline vs treatment day three, P=0.006) was “significant decrease”.

For COCC(COC)Nc1nc(C)nc2c(-c3ccc(Cl)cc3Cl)c(C)nn12 [DMP-696], the REMS activity [2] is given as “only a mild suppression of REMS”, the REM enhancement [3] is given as “could reverse the REM enhancement” and the “REMS suppression relative to baseline REMS-levels of CL” value (CRH-COE^CNS mice) is given as “never exceeded baseline REMS-levels of CL”. For the same molecule, the “treatment day of strongest suppression of REMS activity” value (CRH-COE^CNS mice) was “treatment day three”, the REMS activity (CRH-COE^CNS mice; 50 mg/kg/day) was “significant decrease in REMS activity” and the REMS activity (CRH-COE^CNS mice; listed as DMP696, 50 mg/kg/day) was “suppressed”.
